Test results as given in patent US20250360143A1, “COMPOSITIONS AND METHODS FOR PHA[…] OF STROKE AND […] REPERFUSION INJURY” (priority 2022, published 2025).
Counter-ions that a name gives are not always drawn. Like-named read-outs stand apart in the source and are kept apart here.

Experiments:
Experiment in all cases: cell-based
hP2X1R = molecular target: T1, hP2X1R (Homo sapiens, UniProt P51575); conditions: for inhibition at 30 µM: CHO-K1, percent inhibition at 30 μM, agonist α,β-MeATP 1.0 μM, read-out: hP2X1R % inhib.
T1 construct: expressed in transfected cells; host or cells: CHO-K1
T1 sequence (P51575 1-399): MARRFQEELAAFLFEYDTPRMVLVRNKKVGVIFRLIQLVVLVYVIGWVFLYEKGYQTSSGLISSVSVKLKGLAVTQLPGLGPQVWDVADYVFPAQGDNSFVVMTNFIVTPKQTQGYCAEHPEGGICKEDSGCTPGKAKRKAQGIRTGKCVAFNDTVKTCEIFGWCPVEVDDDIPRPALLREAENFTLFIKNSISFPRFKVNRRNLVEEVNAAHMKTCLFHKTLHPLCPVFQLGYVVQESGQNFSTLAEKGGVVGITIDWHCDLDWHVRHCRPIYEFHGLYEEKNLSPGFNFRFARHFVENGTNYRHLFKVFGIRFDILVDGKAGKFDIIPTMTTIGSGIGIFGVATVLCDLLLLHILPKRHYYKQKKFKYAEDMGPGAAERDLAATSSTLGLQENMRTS

hP2X2/3R = molecular target: T2, hP2X2/3R (Homo sapiens, UniProt P56373+Q9UBL9); type: cell-based; conditions: for inhibition at 30 µM: CHO-K1, read-out: hP2X2/3R % inhib.
T2 construct: expressed in transfected cells; host or cells: CHO-K1
T2 sequence (Q9UBL9 1-471): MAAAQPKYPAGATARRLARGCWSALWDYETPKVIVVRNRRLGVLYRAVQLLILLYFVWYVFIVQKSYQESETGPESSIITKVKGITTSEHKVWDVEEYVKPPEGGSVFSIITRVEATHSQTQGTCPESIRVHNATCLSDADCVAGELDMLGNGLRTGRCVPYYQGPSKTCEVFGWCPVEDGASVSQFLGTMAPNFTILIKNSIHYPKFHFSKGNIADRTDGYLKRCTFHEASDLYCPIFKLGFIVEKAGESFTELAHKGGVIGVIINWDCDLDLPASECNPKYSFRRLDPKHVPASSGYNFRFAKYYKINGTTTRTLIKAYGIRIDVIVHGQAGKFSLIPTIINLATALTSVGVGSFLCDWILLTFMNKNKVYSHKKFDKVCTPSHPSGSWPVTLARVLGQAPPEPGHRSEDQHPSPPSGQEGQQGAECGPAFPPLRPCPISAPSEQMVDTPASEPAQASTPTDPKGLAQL
T2 sequence (P56373 1-397): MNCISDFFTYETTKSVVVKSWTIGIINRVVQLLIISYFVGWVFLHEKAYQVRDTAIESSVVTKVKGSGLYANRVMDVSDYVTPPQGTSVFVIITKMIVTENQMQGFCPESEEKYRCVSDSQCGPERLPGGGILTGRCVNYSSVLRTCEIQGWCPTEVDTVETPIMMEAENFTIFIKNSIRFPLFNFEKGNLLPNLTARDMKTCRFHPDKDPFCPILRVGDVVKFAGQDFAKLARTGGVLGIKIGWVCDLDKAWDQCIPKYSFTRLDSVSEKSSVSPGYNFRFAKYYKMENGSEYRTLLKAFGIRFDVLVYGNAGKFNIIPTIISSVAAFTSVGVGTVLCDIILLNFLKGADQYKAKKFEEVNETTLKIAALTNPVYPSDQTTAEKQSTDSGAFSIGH

hP2X3R = molecular target: T3, hP2X3R (Homo sapiens, UniProt P56373); type: cell-based; conditions: for inhibition at 30 µM: CHO-K1, read-out: hP2X3R % inhib.
T3 construct: expressed in transfected cells; host or cells: CHO-K1
T3 sequence (P56373 1-397): T2 sequence (P56373 1-397)

hP2X4R = molecular target: T4, hP2X4R (Homo sapiens, UniProt Q99571); type: cell-based; conditions: for inhibition at 30 µM: HEK293, read-out: hP2X4R % inhib.
T4 construct: expressed in transfected cells; host or cells: HEK-293
T4 sequence (Q99571 1-388): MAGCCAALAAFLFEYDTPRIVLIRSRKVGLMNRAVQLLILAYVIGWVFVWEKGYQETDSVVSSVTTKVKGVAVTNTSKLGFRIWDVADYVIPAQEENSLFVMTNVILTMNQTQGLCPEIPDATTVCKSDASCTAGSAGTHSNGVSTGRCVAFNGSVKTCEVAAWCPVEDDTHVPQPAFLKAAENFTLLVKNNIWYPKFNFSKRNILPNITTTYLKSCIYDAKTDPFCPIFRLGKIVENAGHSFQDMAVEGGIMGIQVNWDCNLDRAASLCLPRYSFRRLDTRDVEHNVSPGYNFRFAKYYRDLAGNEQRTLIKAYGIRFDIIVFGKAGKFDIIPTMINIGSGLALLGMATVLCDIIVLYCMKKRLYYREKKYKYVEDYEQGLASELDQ

[1] = percent inhibition at 30 μM, agonist α,β-MeATP 5.0 μM
[2] = percent inhibition at 30 μM, agonist α,β-MeATP 1.0 μM

Row | Molecule | hP2X1R % inhib. (hP2X1R) [%] | hP2X2/3R % inhib. (hP2X2/3R) [%] | hP2X3R % inhib. (hP2X3R) [%] | hP2X4R inhibitory activity relative to 22a, in words (hP2X4R) | inhibition at 30 µM (hP2X1R) [%] | inhibition at 30 µM (hP2X2/3R; [1]) [%] | inhibition at 30 µM (hP2X3R; [2]) [%] | IC50 (hP2X4R; agonist CTP 10 μM (~EC80)) [µM] | further results
1 | 2′,3′-O-Trinitrophenyl-adenosine-5′-triphosphate [TNP-ATP, reference compound] | – | – | – | – | – | – | – | – | IC50 (hP2X1R): 0.12 µM; IC50 (hP2X2/3R): 0.064 µM; IC50 (hP2X3R): 0.018 µM
2 | CCN(CC)CC.Cc1ccc2c(Br)cc3c(c2c1)NC(=O)CC(=O)N3c1cccc(-c2noc(=S)[nH]2)c1 [Compound 21e, 7-Bromo-10-methyl-5-(3-(5-thioxo-4,5-dihydro-1,2,4-oxadiazol-3-yl)phenyl)-1,5-dihydro-2H-naphtho[1,2-b][1,4]diazepine-2,4(3H)-dione triethylamine salt] | −2 | −5 | 17 | only moderately reduced activity | – | – | – | – | IC50 (hP2X4R): 11.8 µM
3 | CCN(CC)CC.[N-]=[N+]=NCc1ccc2ccc3c(c2c1)NC(=O)CC(=O)N3c1cccc(-c2noc(=S)[nH]2)c1 [Compound 21g, 10-(azidomethyl)-5-(3-(5-thioxo-4,5-dihydro-1,2,4-oxadiazol-3-yl)phenyl)-1,5-dihydro-2H-naphtho[1,2-b][1,4]diazepine-2,4(3H)-dione triethylamine salt] | 8 | 4 | 13 | – | – | – | – | – | hP2X4R % inhib. (hP2X4R): 6%
4 | CCN(CC)CC.[N-]=[N+]=NCc1ccc2c(Br)cc3c(c2c1)NC(=O)CC(=O)N3c1cccc(-c2noc(=S)[nH]2)c1 [Compound 21h, 10-(azidomethyl)-7-bromo-5-(3-(5-thioxo-4,5-dihydro-1,2,4-oxadiazol-3-yl)phenyl)-1,5-dihydro-2H-naphtho[1,2-b][1,4]diazepine-2,4(3H)-dione triethylamine salt] | −13 | −4 | 15 | inactive | – | – | – | – | hP2X4R % inhib. (hP2X4R): 8%
5 | CC(=O)NCc1ccc2ccc3c(c2c1)NC(=O)CC(=O)N3c1cccc(-c2noc(=S)[nH]2)c1.CCN(CC)CC [Compound 21i, N-((2,4-Dioxo-5-(3-(5-thioxo-4,5-dihydro-1,2,4-oxadiazol-3-yl)phenyl)-2,3,4,5-tetrahydro-1H-naphtho[1,2-b][1,4]diazepin-10-yl)methyl) acetamide triethylamine salt] | – | – | – | inactive | – | – | – | – | hP2X2/3R % inhib. (hP2X2/3R; [1]): −5%; hP2X3R % inhib. (hP2X3R; [2]): 9%; hP2X4R % inhib. (hP2X4R; percent inhibition at 30 μM, agonist CTP 10 μM): 16%
6 | CCN(CC)CC.[N-]=[N+]=NCc1ccc2c3c(ccc2c1)N(c1cccc(-c2noc(=S)[nH]2)c1)C(=O)CC(=O)N3 [Compound 21j, 9-(Azidomethyl)-5-(3-(5-thioxo-4,5-dihydro-1,2,4-oxadiazol-3-yl)phenyl)-1,5-dihydro-2H-naphtho[1,2-b][1,4]diazepine-2,4(3H)-dione triethylamine salt] | −5 | 2 | 0 | destabilizing | – | – | – | – | IC50 (hP2X4R): 21.3 µM
7 | O=C1CC(=O)N(c2cccc(-c3noc(=S)[nH]3)c2)c2cc(C#Cc3ccccc3)c3ccccc3c2N1 [Compound 21m, 7-(Phenylethynyl)-5-(3-(5-thioxo-4,5-dihydro-1,2,4-oxadiazol-3-yl)phenyl)-1,5-dihydro-2H-naphtho[1,2-b][1,4]diazepine-2,4(3H)-dione] | – | – | – | – | 14 | 5 | 7 | – | inhibition at 30 µM (hP2X4R): -4%
8 | O=C1CC(=O)N(c2cccc(-c3noc(=S)[nH]3)c2)c2cc(C#Cc3cccnc3)c3ccccc3c2N1 [Compound 21n, 7-(Pyridin-3-ylethynyl)-5-(3-(5-thioxo-4,5-dihydro-1,2,4-oxadiazol-3-yl)phenyl)-1,5-dihydro-2H-naphtho[1,2-b][1,4]diazepine-2,4(3H)-dione] | – | – | – | – | 9 | 13 | 9 | – | inhibition at 30 µM (hP2X4R): 34%
9 | CCCCC#Cc1cc2c(c3ccccc13)NC(=O)CC(=O)N2c1cccc(-c2noc(=S)[nH]2)c1 [Compound 21o, 7-(Hex-1-yn-1-yl)-5-(3-(5-thioxo-4,5-dihydro-1,2,4-oxadiazol-3-yl)phenyl)-1,5-dihydro-2H-naphtho[1,2-b][1,4]diazepine-2,4(3H)-dione] | – | – | – | – | 16 | 1 | 18 | – | inhibition at 30 µM (hP2X4R): 15%
10 | CCc1cc2c(c3ccccc13)NC(=O)CC(=O)N2c1cccc(-c2noc(=S)[nH]2)c1 [Compound 21p, 7-Ethyl-5-(3-(5-thioxo-4,5-dihydro-1,2,4-oxadiazol-3-yl)phenyl)-1,5-dihydro-2H-naphtho[1,2-b][1,4]diazepine-2,4(3H)-dione triethylamine salt] | – | – | – | – | 6 | 10 | 6 | 5.13 | –
11 | CCN(CC)CC.NCc1ccc2ccc3c(c2c1)NC(=O)CC(=O)N3c1cccc(-c2noc(=S)[nH]2)c1 [Compound 21q, 10-(Aminomethyl)-5-(3-(5-thioxo-4,5-dihydro-1,2,4-oxadiazol-3-yl)phenyl)-1,5-dihydro-2H-naphtho[1,2-b][1,4]diazepine-2,4(3H)-dione triethylamine salt] | 8 | 0 | 9 | – | – | – | – | – | hP2X4R % inhib. (hP2X4R): 9%
12 | Cc1cc(-c2noc(=S)[nH]2)cc(N2C(=O)CC(=O)Nc3c2ccc2ccccc32)c1 [Compound 21r, 5-(3-Methyl-5-(5-thioxo-4,5-dihydro-1,2,4-oxadiazol-3-yl)phenyl)-1,5-dihydro-2H-naphtho[1,2-b][1,4]diazepine-2,4(3H)-dione] | – | – | – | – | 16 | 5 | 12 | 14 | –
13 | O=C1CC(=O)N(c2cc(-c3noc(=S)[nH]3)ccn2)c2ccc3ccccc3c2N1 [Compound 21s, 5-(4-(5-Thioxo-4,5-dihydro-1,2,4-oxadiazol-3-yl)pyridin-2-yl)-1,5-dihydro-2H-naphtho[1,2-b][1,4]diazepine-2,4(3H)-dione triethylamine salt] | – | – | – | reduce | 18 | -6 | 18 | 13.5 | –
14 | O=C1CC(=O)N(c2cncc(-c3noc(=S)[nH]3)c2)c2ccc3ccccc3c2N1 [Compound 21t, 5-(5-(5-Thioxo-4,5-dihydro-1,2,4-oxadiazol-3-yl)pyridin-3-yl)-1,5-dihydro-2H-naphtho[1,2-b][1,4]diazepine-2,4(3H)-dione triethylamine salt] | – | – | – | reduce | 15 | 25 | 6 | 14.6 | –
15 | O=C1CC(=O)N(c2cccc(-c3noc(=S)[nH]3)n2)c2ccc3ccccc3c2N1 [Compound 21v, 5-(6-(5-Thioxo-4,5-dihydro-1,2,4-oxadiazol-3-yl)pyridin-2-yl)-1,5-dihydro-2H-naphtho[1,2-b][1,4]diazepine-2,4(3H)-dione triethylamine salt] | – | – | – | reduce | ≤ 31 | 15 | 17 | 6.48 | –
